The results in this text go back to ChEMBL document CHEMBL5291721, “A preclinical secondary pharmacology resource illuminates target-adverse drug reaction associations of marketed drugs” (Nat Commun, 2023).

The target of test [1] is Histamine H1 receptor (Homo sapiens, UniProt P35367).
The target in test [2] is T1, Type-1 angiotensin II receptor (Homo sapiens, UniProt P30556).
T1 sequence (P30556 whole entry): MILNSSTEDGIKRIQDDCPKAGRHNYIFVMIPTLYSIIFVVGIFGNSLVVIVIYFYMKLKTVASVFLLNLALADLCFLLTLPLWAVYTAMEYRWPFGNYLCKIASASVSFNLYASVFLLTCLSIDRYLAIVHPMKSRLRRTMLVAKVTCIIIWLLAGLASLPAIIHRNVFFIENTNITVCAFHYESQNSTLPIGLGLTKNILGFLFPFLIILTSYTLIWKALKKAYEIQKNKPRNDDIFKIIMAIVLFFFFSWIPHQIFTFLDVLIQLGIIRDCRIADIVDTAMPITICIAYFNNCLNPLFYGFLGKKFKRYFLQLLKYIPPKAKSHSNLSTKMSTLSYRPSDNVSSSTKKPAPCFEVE

Test [3] addresses Glutamate receptor ionotropic, NMDA 1 (Rattus norvegicus, UniProt P35439).
For test [4], the target named is D(3) dopamine receptor (Homo sapiens, UniProt P35462).
The target of test [5] is Cannabinoid receptor 1 (Homo sapiens, UniProt P21554). It counts as functional, cell-based.
Test [6] has as its target T2, Muscarinic acetylcholine receptor M2 (Homo sapiens, UniProt P08172).
T2 sequence (P08172 whole entry): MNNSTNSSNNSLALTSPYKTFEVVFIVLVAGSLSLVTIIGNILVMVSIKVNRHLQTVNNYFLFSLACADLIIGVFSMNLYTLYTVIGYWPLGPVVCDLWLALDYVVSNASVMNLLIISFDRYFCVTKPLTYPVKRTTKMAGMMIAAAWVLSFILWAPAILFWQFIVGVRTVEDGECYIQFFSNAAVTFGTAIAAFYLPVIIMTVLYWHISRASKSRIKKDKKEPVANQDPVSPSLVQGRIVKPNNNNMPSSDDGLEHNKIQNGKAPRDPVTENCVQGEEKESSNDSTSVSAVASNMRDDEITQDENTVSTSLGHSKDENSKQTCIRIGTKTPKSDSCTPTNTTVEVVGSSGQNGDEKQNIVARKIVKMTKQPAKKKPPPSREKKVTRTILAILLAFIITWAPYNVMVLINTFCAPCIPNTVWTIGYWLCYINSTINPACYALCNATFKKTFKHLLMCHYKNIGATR
It counts as functional, cell-based.

Test [7] concerns the target T3, Muscarinic acetylcholine receptor M1 (Homo sapiens, UniProt P11229).
T3 sequence (P11229 whole entry): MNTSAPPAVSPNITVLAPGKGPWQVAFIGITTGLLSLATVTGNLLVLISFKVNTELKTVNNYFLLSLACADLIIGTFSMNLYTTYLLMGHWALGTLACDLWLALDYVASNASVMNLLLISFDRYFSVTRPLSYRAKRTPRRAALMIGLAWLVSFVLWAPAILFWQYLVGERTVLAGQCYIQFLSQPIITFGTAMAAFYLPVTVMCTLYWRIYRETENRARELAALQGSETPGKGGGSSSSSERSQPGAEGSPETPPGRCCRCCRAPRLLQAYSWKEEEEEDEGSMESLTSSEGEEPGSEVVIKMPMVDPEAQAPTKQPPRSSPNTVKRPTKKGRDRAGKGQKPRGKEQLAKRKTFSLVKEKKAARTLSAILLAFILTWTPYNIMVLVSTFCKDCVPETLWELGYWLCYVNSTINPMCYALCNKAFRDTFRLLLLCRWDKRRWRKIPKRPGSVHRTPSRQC
It counts as functional.

Test [8] addresses T4, Amine oxidase [flavin-containing] A (Homo sapiens, UniProt P21397).
T4 sequence (P21397 whole entry): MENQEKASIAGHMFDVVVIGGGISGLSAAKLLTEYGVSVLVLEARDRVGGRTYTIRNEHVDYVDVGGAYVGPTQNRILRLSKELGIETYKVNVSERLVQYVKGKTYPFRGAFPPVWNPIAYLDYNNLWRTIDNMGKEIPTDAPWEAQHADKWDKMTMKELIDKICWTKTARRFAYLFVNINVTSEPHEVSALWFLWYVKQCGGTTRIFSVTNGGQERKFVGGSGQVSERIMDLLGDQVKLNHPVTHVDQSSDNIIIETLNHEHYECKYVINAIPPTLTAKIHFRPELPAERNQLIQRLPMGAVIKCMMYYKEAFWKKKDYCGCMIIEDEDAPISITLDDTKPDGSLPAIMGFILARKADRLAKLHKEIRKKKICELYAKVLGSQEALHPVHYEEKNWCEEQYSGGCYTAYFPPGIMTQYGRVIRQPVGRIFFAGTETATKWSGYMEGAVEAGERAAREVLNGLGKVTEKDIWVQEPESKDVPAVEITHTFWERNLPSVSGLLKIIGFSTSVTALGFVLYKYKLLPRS
It counts as functional.

In test [9] the target is Growth hormone secretagogue receptor type 1 (Homo sapiens, UniProt Q92847).
Test [10] concerns the target T5, Adenosine receptor A3 (Homo sapiens, UniProt P0DMS8).
T5 sequence (P0DMS8 whole entry): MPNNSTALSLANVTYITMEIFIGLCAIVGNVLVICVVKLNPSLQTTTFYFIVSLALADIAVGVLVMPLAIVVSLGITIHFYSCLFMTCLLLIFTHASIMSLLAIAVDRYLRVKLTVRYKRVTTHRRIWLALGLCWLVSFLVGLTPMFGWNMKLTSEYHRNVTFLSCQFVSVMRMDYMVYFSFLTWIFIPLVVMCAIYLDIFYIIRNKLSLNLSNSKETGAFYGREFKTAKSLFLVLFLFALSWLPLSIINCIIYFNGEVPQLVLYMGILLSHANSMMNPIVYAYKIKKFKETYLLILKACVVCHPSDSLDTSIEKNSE

In test [11] the target is T6, Alpha-1A adrenergic receptor (Homo sapiens, UniProt P35348).
T6 sequence (P35348 whole entry): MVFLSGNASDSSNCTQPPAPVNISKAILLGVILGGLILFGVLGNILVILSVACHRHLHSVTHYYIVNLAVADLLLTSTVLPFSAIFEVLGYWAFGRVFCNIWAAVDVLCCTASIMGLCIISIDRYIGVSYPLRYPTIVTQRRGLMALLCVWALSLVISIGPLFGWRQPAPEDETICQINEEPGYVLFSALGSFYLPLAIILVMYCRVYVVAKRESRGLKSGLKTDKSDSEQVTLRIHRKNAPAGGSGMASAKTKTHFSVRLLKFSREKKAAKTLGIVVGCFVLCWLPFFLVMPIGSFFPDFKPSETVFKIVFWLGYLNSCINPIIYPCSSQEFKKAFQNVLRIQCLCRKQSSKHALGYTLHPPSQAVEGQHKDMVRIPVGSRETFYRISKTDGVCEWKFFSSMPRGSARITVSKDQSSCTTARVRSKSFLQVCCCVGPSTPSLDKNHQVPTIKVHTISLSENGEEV
It counts as functional, cell-based.

Structures are written as SMILES. A value given as a limit tells only on which side of the number the result lay.
Also: assay procedure not described here.

Sequence of Growth hormone secretagogue receptor type 1 (Q92847 whole entry): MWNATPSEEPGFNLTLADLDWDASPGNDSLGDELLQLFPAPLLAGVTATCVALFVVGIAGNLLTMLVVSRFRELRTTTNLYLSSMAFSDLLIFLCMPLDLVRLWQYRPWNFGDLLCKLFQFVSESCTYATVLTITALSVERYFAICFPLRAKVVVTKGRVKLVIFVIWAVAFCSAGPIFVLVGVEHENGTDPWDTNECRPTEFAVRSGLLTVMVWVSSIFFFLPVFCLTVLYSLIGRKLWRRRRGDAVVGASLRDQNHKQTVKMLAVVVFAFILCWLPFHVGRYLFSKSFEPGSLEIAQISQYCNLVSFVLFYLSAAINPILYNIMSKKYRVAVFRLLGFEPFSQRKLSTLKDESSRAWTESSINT
Sequence of Cannabinoid receptor 1 (P21554 whole entry): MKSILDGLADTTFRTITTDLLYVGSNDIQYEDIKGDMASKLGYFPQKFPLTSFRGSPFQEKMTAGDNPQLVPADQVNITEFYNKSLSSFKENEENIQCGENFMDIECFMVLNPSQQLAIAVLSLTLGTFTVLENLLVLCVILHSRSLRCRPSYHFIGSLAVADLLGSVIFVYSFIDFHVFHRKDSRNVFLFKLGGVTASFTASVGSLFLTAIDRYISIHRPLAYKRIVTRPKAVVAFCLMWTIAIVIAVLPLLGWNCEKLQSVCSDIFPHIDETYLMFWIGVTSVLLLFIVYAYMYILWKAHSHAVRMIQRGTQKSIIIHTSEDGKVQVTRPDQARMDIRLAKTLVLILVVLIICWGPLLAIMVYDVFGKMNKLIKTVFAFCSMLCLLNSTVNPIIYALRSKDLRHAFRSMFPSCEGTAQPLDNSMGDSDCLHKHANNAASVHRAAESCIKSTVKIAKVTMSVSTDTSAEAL
Sequence of Histamine H1 receptor (P35367 whole entry): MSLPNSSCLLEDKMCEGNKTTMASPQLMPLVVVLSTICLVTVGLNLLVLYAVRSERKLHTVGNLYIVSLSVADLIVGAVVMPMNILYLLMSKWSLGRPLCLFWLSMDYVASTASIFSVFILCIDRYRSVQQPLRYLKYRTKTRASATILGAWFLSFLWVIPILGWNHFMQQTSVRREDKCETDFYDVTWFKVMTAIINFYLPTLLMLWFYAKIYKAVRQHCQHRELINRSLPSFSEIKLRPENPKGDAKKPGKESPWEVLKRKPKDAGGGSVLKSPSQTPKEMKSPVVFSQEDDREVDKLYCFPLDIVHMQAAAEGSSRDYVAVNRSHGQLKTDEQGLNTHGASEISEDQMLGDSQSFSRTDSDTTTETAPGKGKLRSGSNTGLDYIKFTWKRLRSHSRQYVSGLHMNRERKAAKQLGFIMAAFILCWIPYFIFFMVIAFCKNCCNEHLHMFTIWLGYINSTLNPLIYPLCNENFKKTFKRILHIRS
Sequence of D(3) dopamine receptor (P35462 whole entry): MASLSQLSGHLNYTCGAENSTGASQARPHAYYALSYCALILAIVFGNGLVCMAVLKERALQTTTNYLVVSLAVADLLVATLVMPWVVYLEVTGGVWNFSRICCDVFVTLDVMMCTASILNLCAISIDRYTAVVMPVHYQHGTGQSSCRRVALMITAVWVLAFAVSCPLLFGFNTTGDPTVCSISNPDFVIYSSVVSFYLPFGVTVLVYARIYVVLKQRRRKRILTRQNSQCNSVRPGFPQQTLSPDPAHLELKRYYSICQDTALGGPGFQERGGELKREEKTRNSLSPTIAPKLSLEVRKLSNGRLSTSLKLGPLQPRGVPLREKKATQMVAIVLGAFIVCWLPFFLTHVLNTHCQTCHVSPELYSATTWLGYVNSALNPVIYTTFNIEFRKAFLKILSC

Consider `COc1ccc(-c2cc(=S)ss2)cc1` [ANETHOLTRITHION], for which the AC50 (usually the midpoint of the concentration-response curve, whichever way the signal moves) in [1] is over 30 µM; in test [2], 9.3 µM; in test [3], over 30 µM; in [4], over 30 µM; in test [5], over 30 µM; in test [6] it was over 30 µM. For the same molecule, the AC50 was over 30 µM in test [7]; 7.4 µM in test [8]; over 30 µM in test [9]; 7.7 µM in [10]; over 30 µM in test [11].
In the case of `C[C@]12CCC(=O)C=C1C=C[C@@H]1[C@@H]2CC[C@@]2(C)[C@H]1CC[C@@]21CCC(=O)O1` [CANRENONE], the AC50 is over 30 µM in test [1]; over 30 µM in test [2]; over 30 µM in test [3]; over 30 µM in test [4]; over 30 µM in test [5]; 20 µM in [6]. Further, the AC50 in test [7], in test [8], in [9], in test [10] and in test [11] was over 30 µM throughout.
For `C[C@]12C=CC(=O)C=C1C(Cl)=C[C@@H]1[C@@H]2[C@@H](O)C[C@@]2(C)[C@H]1CC[C@]2(O)C(=O)CO` [CLOPREDNOL], the AC50 in test [1], in [2], in [3], in test [4], in test [5] and in test [6] was over 30 µM each time. For the same molecule, the AC50 in test [7] is over 30 µM; in test [8], over 30 µM; in test [9] it was over 30 µM; in test [10] it was 13 µM; in [11], over 30 µM.
For `CC(C)(Oc1ccc(Cl)cc1)C(=O)OCCOC(=O)c1cccnc1` [ETOFIBRATE], the AC50 in [1], in test [2], in test [3], in test [4], in test [5] and in test [6] was over 30 µM throughout. For the same molecule, the AC50 in [7], in test [9], in test [10] and in [11] was over 30 µM each time.
Turning to `CN(C)[C@@H]1C(O)=C(C(=O)NCN2CCCC2)C(=O)[C@@]2(O)C(O)=C3C(=O)c4c(O)cccc4[C@@](C)(O)[C@H]3C[C@@H]12` [ROLITETRACYCLINE], the AC50 in test [1] was over 10 µM; in [2], over 10 µM; in test [3], over 10 µM; in [4], over 30 µM; in [5] it was over 30 µM; in test [6], over 10 µM. The AC50 in [7] is over 10 µM; in test [8] it was over 10 µM; in [9], over 10 µM; in test [10], over 10 µM; in [11] it was over 30 µM.
As to `Oc1cc(Cl)ccc1Oc1ccc(Cl)cc1Cl` [TRICLOSAN], the AC50 in test [1] was over 30 µM; in test [2], 24 µM; in [3], over 30 µM; in [4] it was over 30 µM; in test [5], over 30 µM; in test [6] it was over 30 µM. In addition, the AC50 was over 30 µM in test [7]; over 30 µM in [8]; over 30 µM in test [9]; 8.9 µM in [10]; over 30 µM in test [11].
